Experimental data: patent US10570129B2 (Zoetis Services LLC, priority 2015, dated 2020)

Columns and labels:
Haemonchus contortus L3 = assay: microbe, parasite or virus in culture; type: cell-based; settings: Haemonchus contortus, 96 h, read-out: HcL3 Minimal Effective Concentration (MEC)
D. immitis microfilariae = assay: Dirofilaria immitis, microfilariae (DiMF) in vitro motility assay; type: cell-based; settings: Dirofilaria immitis, 72 h, read-out: DiMF minimally effective dose (MEC)

Row | SMILES | minimal effective concentration (Haemonchus contortus L3) [µM] | minimal effective concentration (D. immitis microfilariae) [µM]
1 | N#Cc1ccc(/C=C/CN2CCc3c(c4cc(C(F)(F)F)ccc4n3C(=O)NCc3ccnc(Cl)c3)C2)cc1 [Example 331, (E)-N-((2-chloropyridin-4-yl)methyl)-2-(3-(4-cyanophenyl)allyl)-8-(trifluoromethyl)-1,2,3,4-tetrahydro-5H-pyrido[4,3-b]indole-5-carboxamide] | 0.7 | 24
2 | O=C(NCc1ccnc(Cl)c1)n1c2c(c3cc(C(F)(F)F)ccc31)CN(C/C=C/c1ccc(Cl)cc1)CC2 [Example 332, (E)-2-(3-(4-chlorophenyl)allyl)-N-((2-chloropyridin-4-yl)methyl)-8-(trifluoromethyl)-1,2,3,4-tetrahydro-5H-pyrido[4,3-b]indole-5-carboxamide] | 1 | 13.5
3 | O=C(NCc1ccnc(Cl)c1)n1c2c(c3cc(C(F)(F)F)ccc31)CN(C/C=C/c1ccc(Cl)c(Cl)c1)CC2 [Example 333, (E)-N-((2-chloropyridin-4-yl)methyl)-2-(3-(3,4-dichlorophenyl)allyl)-8-(trifluoromethyl)-1,2,3,4-tetrahydro-5H-pyrido[4,3-b]indole-5-carboxamide] | 1.8 | > 100
4 | O=C(NCc1ccnc(Cl)c1)n1c2c(c3cc(C(F)(F)F)ccc31)CN(C/C=C/c1ccc(F)cc1)CC2 [Example 334, (E)-N-((2-chloropyridin-4-yl)methyl)-2-(3-(4-fluorophenyl)allyl)-8-(trifluoromethyl)-1,2,3,4-tetrahydro-5H-pyrido[4,3-b]indole-5-carboxamide] | 1 | 10
5 | O=C(NCc1ccnc(Cl)c1)n1c2c(c3cc(C(F)(F)F)ccc31)CN(C/C=C/c1ccc(OC(F)(F)F)cc1)CC2 [Example 335, (E)-N-((2-chloropyridin-4-yl)methyl)-2-(3-(4-(trifluoromethoxy)phenyl)allyl)-8-(trifluoromethyl)-1,2,3,4-tetrahydro-5H-pyrido[4,3-b]indole-5-carboxamide] | 10 | 24
6 | O=C(NCc1ccnc(Cl)c1)n1c2c(c3ccc(OC(F)(F)F)cc31)CN(C/C=C/c1ccc(Cl)c(F)c1)CC2 [Example 336, (E)-2-(3-(4-chloro-3-fluorophenyl)allyl)-N-((2-chloropyridin-4-yl)methyl)-7-(trifluoromethoxy)-1,2,3,4-tetrahydro-5H-pyrido[4,3-b]indole-5-carboxamide] | 1 | 33
7 | O=C(NCc1ccnc(Cl)c1)n1c2c(c3ccc(OC(F)(F)F)cc31)CN(C/C=C/c1ccc(Cl)cc1Cl)CC2 [Example 337, (E)-N-((2-chloropyridin-4-yl)methyl)-2-(3-(2,4-dichlorophenyl)allyl)-7-(trifluoromethoxy)-1,2,3,4-tetrahydro-5H-pyrido[4,3-b]indole-5-carboxamide] | 1 | 18.2
8 | O=C(NCc1ccnc(Cl)c1)n1c2c(c3ccc(OC(F)(F)F)cc31)CN(C/C=C/c1ccc(Br)cc1F)CC2 [Example 338, (E)-2-(3-(4-bromo-2-fluorophenyl)allyl)-N-((2-chloropyridin-4-yl)methyl)-7-(trifluoromethoxy)-1,2,3,4-tetrahydro-5H-pyrido[4,3-b]indole-5-carboxamide] | 0.3 | 10
9 | O=C(NCc1ccnc(Cl)c1)n1c2c(c3ccc(OC(F)(F)F)cc31)CN(C/C=C/c1c(F)cc(Cl)cc1F)CC2 [Example 339, (E)-2-(3-(4-chloro-2,6-difluorophenyl)allyl)-N-((2-chloropyridin-4-yl)-methyl)-7-(trifluoromethoxy)-1,2,3,4-tetrahydro-5H-pyrido[4,3-b]indole-5-carboxamide] | 0.5 | 0.5
